Results taken from patent US20090305993A1, “METHODS AND COMPOSITION FOR THE TREATMENT OF GASTROINTESTINAL DISORDERS” (IRONWOOD PHARMACEUTICALS, INC., priority 2006, published 2009).
Where a SMILES comes first, the peptide text is derived from it. Bridges are numbered along the chain shown (N, C = ends).

Legend:
[1] = bioavailability study in mice, LCMS detection; type: in vivo; conditions: CD1, mouse, serum, IV and oral, FIG. 10b, read-out: bioavailable
Experimental: A similar bioavailability study was performed in which LCMS rather than ELISA was used to detect SEQ ID NO:3. Initially, serum samples were extracted from the whole blood of exposed and control mice, then injected directly ([…]) onto an in-line solid phase extraction (SPE) column (Waters Oasis HLB 25 μm column, 2.0×15 mm direct connect) without further processing. The sample on the SPE column was washed with a 5% methanol, 95% dH2O solution (2.1 mL/min, 1.0 minute), then loaded onto an analytical column using a valve switch that places the SPE column in an inverted flow path onto the analytical column (Waters Xterra MS C8 5 μm IS column, 2.1×20 mm). The sample was eluted from the analytical column with a reverse phase gradient (Mobile Phase A: 10 mM ammonium hydroxide in dH2O, Mobile Phase B: 10 mM ammonium hydroxide in 80% acetonitrile and 20% methanol; 20% B for the first 3 minutes then ramping to 95% B over 4 min. and holding for 2 min., all at a flow rate of 0.4 mL/min.). At 9.1 minutes, the gradient returns to the initial conditions of 20% B for 1 min. SEQ ID NO:3 eluted from the analytical column at 1.45 minutes, and was detected by triple-quadrapole mass spectrometry (MRM, 764 (+2 charge state)>182 (+1 charge state) Da; cone voltage=30V; collision=20 eV; parent resolution=2 Da at base peak; daughter resolution=2 Da at base peak). […]

Female CD rats = experiment: rat model of postoperative ileus; type: in vivo; conditions: oral 10 μg/kg, after abdominal surgery, FIG. 16
Experimental: Female CD rats were used to test the effect of SEQ ID NO:3 on delayed transit induced by abdominal surgery and manual manipulation of the small intestine. Groups of at least nine rats underwent abdominal surgery under isoflurane anesthesia. Surgery consisted of laparotomy and 5 minutes of gentle manual intestinal massage. Following recovery from anesthesia, rats were dosed orally with either 10 μg/kg SEQ ID NO:3 or vehicle (20 mM Tris) in a volume of 300 μl. 1 hour after dosing, intestinal transit rate was measured. Animals were again dosed with 300 μl of the test article followed immediately by 500 μl of a charcoal meal (10% charcoal, 10% gum arabic in water). To calculate the distance of the small intestine traveled by the charcoal front, after 20 minutes, the total length of the intestine as well as the distance traveled from the stomach to the charcoal front were measured for each animal. Animals dosed with 10 μg/kg SEQ ID NO:3 experienced an increase in transit following abdominal surgery compared to animals dosed with vehicle alone (FIG. 16). Charcoal transit in SEQ ID NO:3 dosed animals was measured at 37.3+3.0% (mean+SEM) of the small intestine compared with vehicle at 24.7+1.4% (mean+SEM) of the small intestine.

CD1 female mice = experiment: murine gastrointestinal transit assay, chronic dosing; type: in vivo, mouse; conditions: oral, daily for 5 days; SEQ ID NO:3 0.06 or 0.25 mg/kg; FIG. 4c
Experimental: The identical experiment was performed to determine if SEQ ID NO:3 is effective in a chronic dosing treatment regimen. Briefly, 8 week old CD1 female mice are dosed orally once a day for 5 days with either SEQ ID NO:3 (0.06 mg/kg or 0.25 mg/kg in 20 mM Tris pH 7.5) or vehicle alone (20 mM Tris pH 7.5). On the 5th day, a GIT assay is performed identical to that above except 200 μl of a 10% charcoal solution is administered. […] The results are shown side by side with acute dosing (1 day).

mice = experiment: murine gastrointestinal transit (GIT) assay, acute dosing; type: in vivo, mouse
Experimental: In order to determine whether the peptides increase the rate of gastrointestinal transit, the peptides and controls were tested using a murine gastrointestinal transit (GIT) assay (Moon et al. Infection and Immunity 25:127, 1979). In this assay, charcoal, which can be readily visualized in the gastrointestinal tract is administered to mice after the administration of a test compound. The distance traveled by the charcoal is measured and expressed as a percentage of the total length of the […].
Mice were fasted with free access to water for 12 to 16 hours before the treatment with peptide or control buffer. The peptides were orally administered at 1 μg/kg-1 mg/kg of peptide in buffer (20 mM Tris pH 7.5) 7 minutes before being given an oral dose of 5% Activated Carbon (Aldrich 242276-250G). Control mice were administered buffer only before being given a dose of Activated Carbon. After 15 minutes, the mice were sacrificed and their intestines from the stomach to the cecum were dissected. The total length of the intestine as well as the distance traveled from the stomach to the charcoal front was measured for each animal and the results are expressed as the percent of the total length of the intestine traveled by the charcoal front. All results are reported as the average of 10 mice±standard deviation. A comparison of the distance traveled by the charcoal between the mice treated with peptide versus the mice treated with vehicle alone was performed using a Student's t test and a statistically significant difference was considered for P<0.05. P-values are calculated using a two-sided T-Test assuming unequal variances.

With C[C@@H]1NC(=O)[C@@H]2CCCN2C(=O)[C@H](CC(N)=O)NC(=O)[C@@H]2CSSC[C@H](N)C(=O)N[C@H]3CSSC[C@H](NC1=O)C(=O)N[C@@H]([C@@H](C)O)C(=O)NCC(=O)N[C@H](C(=O)N[C@@H](Cc1ccc(O)cc1)C(=O)O)CSSC[C@H](NC(=O)[C@H](Cc1ccc(O)cc1)NC(=O)[C@H](CCC(=O)O)NC3=O)C(=O)N2 [SEQ ID NO:3] (H-CCEYCCNPACTGCY-OH; disulfide 1-6, 2-10, 5-13; N-terminus and C-terminus assumed) the bioavailability [1] was < 0.11%, the “Charcoal transit, of the small intestine (mean+SEM)” value (Female CD rats) was 37.3+3.0% and the “gastrointestinal motility upon chronic dosing” value (CD1 female mice) was “effective”. For the same molecule, the “intestinal transit rates versus Tris buffer and Zelnorm” value (mice; chemically synthesized peptides, FIG. 4b) was “increase intestinal transit rates more than either Tris buffer alone or an equivalent dose of Zelnorm®” and the gastrointestinal transit rate (mice; oral, SEQ ID NO:4 0.1 mg/kg, Zelnorm 0.1 mg/kg, FIG. 3a, 3b) was “increase gastrointestinal transit rate”.
